Reference: patent publication US20190240225A1, “COMBINATION OF A BCL-2 INHIBITOR AND A MCL-1 INHIBITOR, USES AND PHARMACEUTICAL COMPOSITIONS THEREOF” (LES LABORATOIRES SERVIER, priority 2016, published 2019)

Legend:
Format in all cases: cell-based, human
JIM3 = test: MTT cell viability assay, myeloma cell line; conditions: Homo sapiens, single agent, read-out: IC50
Experimental: (§1) Cell lines: Human myeloma cell lines (HMCLs) were derived from primary myeloma cells cultured in RPMI 1640 medium supplemented with 5% fetal calf serum from and 3 ng/mL recombinant IL-6 for IL-6 dependent cell lines. HMCLs are representative of phenotypic and genomic heterogeneity and the variability in patient's response to therapy.
(§2) MTT assay: Cell viability is measured using MTT (3-(4,5-dimethylthiazol-2-yl)-2,5-diphenyltetrazolium bromide) colorimetric survival assay. Cells are incubated with compounds in 96-well plates containing a final volume of 100 μl/well time. (2R)-2-{[(5Sa)-5-{3-chloro-2-methyl-4-[2-(4-methylpiperazin-1-yl)ethoxy]phenyl}-6-(5-fluorofuran-2-yl)thieno[2,3-d]pyrimidin-4-yl]oxy}-3-(2-{[1-(2,2,2-trifluoroethyl)-1H-pyrazol-5-yl]methoxy}phenyl)propanoic acid (Compound 2) is used at 9 different concentrations accordingly to single agent sensitivity. N-(4-hydroxyphenyl)-3-{6-[((3S)-3-(4-morpholinylmethyl)-3,4-dihydro-2(1H)-isoquinolinyl)carbonyl]-1,3-benzodioxol-5-yl}-N-phenyl-5,6,7,8-tetrahydro-1-indolizine carboxamide hydrochloride (Compound 1, HCl) is used at a fixed dose—1 μM. At the end of each treatment, cells are incubated with 1 mg/mL MTT (50 μl MTT solution 2.5 mg/ml for each well) at 37° C. for 3 hours allowing the MTT to be metabolized. Lysis buffer (100 μl Lysis buffer: DMF (2:3)/SDS (1:3)) is added into each well to dissolve formazan cristals and after 18 h of incubation, absorbance in viable cells is measured at 570 nm using a spectrophotometer.
(§3) The sensitivity of 27 human multiple myeloma cell lines to Compound 1, Compound 2 or to Compound 2 in the presence of 1 μM of Compound 1 was analyzed by using MTT cell viability assay. 50% inhibitory concentrations (IC50, in nM) were determined.

OPM2 = test: MTT cell viability assay, myeloma cell line; conditions: Homo sapiens, OPM-2, single agent, read-out: IC50
Experimental: as §1, §2, §3

XG6 = test: MTT cell viability assay, myeloma cell line; conditions: Homo sapiens, single agent, read-out: IC50
Experimental: as §1, §2, §3

NAN3 = test: MTT cell viability assay, myeloma cell line; conditions: Homo sapiens, single agent
Experimental: as §1, §2, §3

AMO1 = test: MTT cell viability assay, myeloma cell line; conditions: Homo sapiens, single agent, read-out: IC50
Experimental: as §1, §2, §3

BCN = test: MTT cell viability assay, myeloma cell line; conditions: Homo sapiens, single agent, read-out: IC50
Experimental: as §1, §2, §3

NAN1 = test: MTT cell viability assay, myeloma cell line; conditions: Homo sapiens, single agent, read-out: IC50
Experimental: as §1, §2, §3

KMM1 = test: MTT cell viability assay, myeloma cell line; conditions: Homo sapiens, KMM-1, single agent, read-out: IC50
Experimental: as §1, §2, §3

XG7 = test: MTT cell viability assay, myeloma cell line; conditions: Homo sapiens, single agent, read-out: IC50
Experimental: as §1, §2, §3

KMS12BM = test: MTT cell viability assay, myeloma cell line; conditions: Homo sapiens, KMS-12-BM, single agent, read-out: IC50
Experimental: as §1, §2, §3

JJN3 = test: MTT cell viability assay, myeloma cell line; conditions: Homo sapiens, JJN-3, single agent, read-out: IC50
Experimental: as §1, §2, §3

XG2 = test: MTT cell viability assay, myeloma cell line; conditions: Homo sapiens, single agent, read-out: IC50
Experimental: as §1, §2, §3

XG3 = test: MTT cell viability assay, myeloma cell line; conditions: Homo sapiens, single agent, read-out: IC50
Experimental: as §1, §2, §3

XG11 = test: MTT cell viability assay, myeloma cell line; conditions: Homo sapiens, single agent, read-out: IC50
Experimental: as §1, §2, §3

LP1 = test: MTT cell viability assay, myeloma cell line; conditions: Homo sapiens, LP-1, single agent, read-out: IC50
Experimental: as §1, §2, §3

XG1 = test: MTT cell viability assay, myeloma cell line; conditions: Homo sapiens, single agent, read-out: IC50
Experimental: as §1, §2, §3

NCI-H929 = test: MTT cell viability assay, myeloma cell line; conditions: Homo sapiens, single agent, read-out: IC50
Experimental: as §1, §2, §3

NAN8 = test: MTT cell viability assay, myeloma cell line; conditions: Homo sapiens, single agent, read-out: IC50
Experimental: as §1, §2, §3

ANBL6 = test: MTT cell viability assay, myeloma cell line; conditions: Homo sapiens, ANBL-6, single agent, read-out: IC50
Experimental: as §1, §2, §3

NAN9 = test: MTT cell viability assay, myeloma cell line; conditions: Homo sapiens, single agent, read-out: IC50
Experimental: as §1, §2, §3

MM1S = test: MTT cell viability assay, myeloma cell line; conditions: Homo sapiens, MM1.S, single agent, read-out: IC50
Experimental: as §1, §2, §3

L363 = test: MTT cell viability assay, myeloma cell line; conditions: Homo sapiens, L-363, single agent, read-out: IC50
Experimental: as §1, §2, §3

SBN = test: MTT cell viability assay, myeloma cell line; conditions: Homo sapiens, single agent, read-out: IC50
Experimental: as §1, §2, §3

NAN6 = test: MTT cell viability assay, myeloma cell line; conditions: Homo sapiens, single agent, read-out: IC50
Experimental: as §1, §2, §3

U266 = test: MTT cell viability assay, myeloma cell line; conditions: Homo sapiens, U-266, single agent, read-out: IC50
Experimental: as §1, §2, §3

RPMI8226 = test: MTT cell viability assay, myeloma cell line; conditions: Homo sapiens, RPMI-8226, single agent, read-out: IC50
Experimental: as §1, §2, §3

KMS11 = test: MTT cell viability assay, myeloma cell line; conditions: Homo sapiens, KMS-11, single agent, read-out: IC50
Experimental: as §1, §2, §3

primary AML blasts = test: Cell viability (sytox blue, flow cytometry) of primary AML patient samples, LC50; conditions: 54 primary AML samples; 48 h; RPMI/15% FCS; combination at 1:1
Experimental: Primary AML patient samples: Bone marrow or peripheral blood samples from patients with AML were collected after informed consent in accordance with guidelines approved by The Alfred Hospital Human research ethics committees. Mononuclear cells were isolated by Ficoll-Paque (GE Healthcare, VIC, Aus) density-gradient centrifugation, followed by red cell depletion in ammonium chloride (NH4Cl) lysis buffer at 37° C. for 10 minutes. Cells were then re-suspended in phosphate-buffered saline containing 2% Fetal Bovine serum (Sigma, NSW, Aus). Mononuclear cells were then suspended in RPMI-1640 (GIBCO VIC, Aus) medium containing penicillin and streptomycin (GIBCO) and heat inactivated fetal bovine serum 15% (Sigma).
Cell Viability: Freshly purified mononuclear cells from AML patient samples were adjusted to a concentration of 2.5×10^5/ml and 100 μL of cells aliquoted per well into 96 well plates (Sigma). […] For combinations assays, drugs were added at a 1:1 ratio from 1 nM to 10 μM and incubated at 37° C. 5% CO2. Cells were then stained with sytox blue nucleic acid stain (Invitrogen, VIC, Aus) and fluorescence measured by flow cytometric analysis using the LSR-II Fortessa (Becton Dickinson, NSW, Aus). FACSDiva software was used for data collection, and FlowJo software for analysis. Blast cells were gated using forward and side scatter properties. […]

Structure (SMILES): Cl.O=C(c1cc(-c2cc3c(cc2C(=O)N2Cc4ccccc4C[C@H]2CN2CCOCC2)OCO3)n2c1CCCC2)N(c1ccccc1)c1ccc(O)cc1 [Compound 1, HCl, N-(4-hydroxyphenyl)-3-{6-[((3S)-3-(4-morpholinylmethyl)-3,4-dihydro-2(1H)-isoquinolinyl)carbonyl]-1,3-benzodioxol-5-yl}-N-phenyl-5,6,7,8-tetrahydro-1-indolizine carboxamide hydrochloride]
- IC50 (JIM3): > 30 µM
- IC50 (OPM2): 6.46 µM
- IC50 (XG6): 8.54 µM
- IC50 (NAN3): 8.24 µM
- IC50 (AMO1): 8.61 µM
- IC50 (BCN): 22.2 µM
- IC50 (NAN1): 6.66 µM
- IC50 (KMM1): 23.9 µM
- IC50 (XG7): 18.1 µM
- IC50 (KMS12BM): 1.39 µM
- IC50 (JJN3): 2.69 µM
- IC50 (XG2): 15.3 µM
- IC50 (XG3): 7.22 µM
- IC50 (XG11): 7.91 µM
- IC50 (LP1): 9.77 µM
- IC50 (XG1): 9.78 µM
- IC50 (NCI-H929): 15.7 µM
- IC50 (NAN8): 9.1 µM
- IC50 (ANBL6): 1.91 µM
- IC50 (NAN9): 23.2 µM
- IC50 (MM1S): 21.4 µM
- IC50 (L363): 7.58 µM
- IC50 (SBN): 21.3 µM
- IC50 (NAN6): 4.07 µM
- IC50 (U266): > 30 µM
- IC50 (RPMI8226): 3.2 µM
- IC50 (KMS11): 10.5 µM

Structure (SMILES): O=C(c1cc(-c2cc3c(cc2C(=O)N2Cc4ccccc4C[C@H]2CN2CCOCC2)OCO3)n2c1CCCC2)N(c1ccccc1)c1ccc(O)cc1 [Compound 1, N-(4-hydroxyphenyl)-3-{6-[((3S)-3-(4-morpholinylmethyl)-3,4-dihydro-2(1H)-isoquinolinyl)carbonyl]-1,3-benzodioxol-5-yl}-N-phenyl-5,6,7,8-tetrahydro-1-indolizine carboxamide]
- proportion of primary AML samples highly sensitive (LC50<10 nM) (primary AML blasts): Approximately 20%
